Measured values taken from patent publication US6583299B1, “α-amino-β-sulfonyl hydroxamic acid compounds” (priority 1999, dated 2003).
Several values for one entry are separate records, joined by “and”; a condition that tells them apart may be missing. Equal entries are not always repeated. Where two headings read alike, the source gives them in different places.

Assays:
Assay in all cases: In vitro metalloprotease inhibition, fluorogenic MCA peptide substrate
Assay type in all cases: biochemical
[1] = biological target: T1, MMP-13 (Homo sapiens, UniProt P45452); conditions: APMA-activated, room temperature, pH 7.5
T1 construct: made in house; host or cells: baculovirus / insect cells

[2] = biological target: T2, MMP-1 (Homo sapiens, UniProt P03956); conditions: recombinant human enzyme, APMA-activated, room temperature, pH 7.5
T2 construct: host or cells: transfected HT-1080 cells
T2 sequence (P03956 100-469): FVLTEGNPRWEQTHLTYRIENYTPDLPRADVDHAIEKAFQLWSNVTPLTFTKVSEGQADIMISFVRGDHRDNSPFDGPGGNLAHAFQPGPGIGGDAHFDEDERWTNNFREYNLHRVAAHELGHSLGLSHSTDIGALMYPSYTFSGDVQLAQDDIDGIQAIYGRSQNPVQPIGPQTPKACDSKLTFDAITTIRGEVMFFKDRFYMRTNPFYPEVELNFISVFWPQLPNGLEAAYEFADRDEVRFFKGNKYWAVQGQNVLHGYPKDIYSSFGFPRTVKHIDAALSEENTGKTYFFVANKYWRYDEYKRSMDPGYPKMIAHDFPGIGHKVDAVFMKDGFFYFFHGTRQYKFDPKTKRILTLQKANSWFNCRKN

[3] = biological target: T3, MMP-2 (Homo sapiens, UniProt P08253); conditions: room temperature, pH 7.5
T3 sequence (P08253 110-660): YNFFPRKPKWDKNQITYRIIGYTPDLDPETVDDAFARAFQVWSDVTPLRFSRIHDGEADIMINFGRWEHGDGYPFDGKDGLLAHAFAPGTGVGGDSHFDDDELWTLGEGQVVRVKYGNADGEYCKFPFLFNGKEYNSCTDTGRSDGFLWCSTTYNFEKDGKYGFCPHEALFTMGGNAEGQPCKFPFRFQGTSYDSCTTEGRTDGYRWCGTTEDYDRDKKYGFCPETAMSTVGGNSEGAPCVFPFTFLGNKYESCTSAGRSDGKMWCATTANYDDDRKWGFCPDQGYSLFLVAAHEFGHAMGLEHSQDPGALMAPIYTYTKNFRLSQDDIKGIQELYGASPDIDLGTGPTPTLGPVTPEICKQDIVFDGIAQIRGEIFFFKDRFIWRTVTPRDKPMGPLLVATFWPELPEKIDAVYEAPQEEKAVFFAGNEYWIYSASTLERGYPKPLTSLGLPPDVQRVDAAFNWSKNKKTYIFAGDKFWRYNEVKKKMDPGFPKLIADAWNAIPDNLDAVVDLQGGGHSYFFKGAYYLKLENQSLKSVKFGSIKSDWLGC

[4] = recombinant human enzyme, read-out: MMP-13 IC50
[5] = MMP-13 IC50, recombinant human enzyme

IC50 [1, 4]	IC50 [2]	IC50 [3]	IC50 [1, 5]	Structure (SMILES)
15 nM	300 nM	–	–	COc1ccc(S(=O)(=O)CC(NC(C)=O)C(=O)NO)cc1 (stereo not shown) [Example 1, N-Hydroxy-3-[(4-methoxyphenyl)sulfonyl]-2-[(methylcarbonyl)amino]propanamide]
15 nM	1500 nM	–	–	COc1ccc(S(=O)(=O)CC(NC(=O)NC(C)(C)C)C(=O)NO)cc1 (stereo not shown) [Example 2, 2-[[[(1,1-Dimethylethyl)amino]carbonyl]amino]-N-hydroxy-3-[(4-methoxyphenyl)sulfonyl]propanamide]
< 1 nM	40 nM	–	–	COc1ccc(S(=O)(=O)CC(NC(=O)CNC(=O)OCc2ccccc2)C(=O)NO)cc1 (stereo not shown) [Example 6, Phenylmethyl-[2-[[2-(hydroxyamino)-2-oxo-1-[[[4-methoxyphenyl]sulfonyl]methyl]ethyl]amino]-2-oxoethyl]carbamate]
1.1 nM	770 nM	–	–	CC(=O)N[C@@H](CS(=O)(=O)c1ccc(Oc2ccccc2)cc1)C(=O)NO [Example 9g, N^2-Acetyl-N^1-hydroxyl-3-[(4-phenoxyphenyl)sulphonyl]alaninamide]
2.7 nM	1600 nM	–	–	CC(C)(C)C(=O)NC(CS(=O)(=O)c1ccc(Oc2ccccc2)cc1)C(=O)NO (stereo not shown) [Example 10d]
6 nM	–	–	–	CCCCC(=O)NC(CS(=O)(=O)c1ccc(Sc2ccccc2)cc1)C(=O)NO (stereo not shown) [Example 11g, N-[1-[(Hydroxyamino)carbonyl]-2-[[4-(phenylthio)phenyl]sulfonyl]ethyl]pentanamide]
0.6 nM	400 nM	< 0.1 nM	–	Cc1ccc(S(=O)(=O)NC(CS(=O)(=O)c2ccc(Oc3ccccc3)cc2)C(=O)NO)cc1 (stereo not shown) [Example 12c]
3.7 nM	> 10000 nM	–	–	O=C(NC(CS(=O)(=O)c1ccc(Sc2ccccc2)cc1)C(=O)NO)OCc1ccccc1 (stereo not shown) [Example 14c, Phenylmethyl-[2-(hydroxyamino)-2-oxo-1-[[[4-(phenylthio)-phenyl]sulfonyl]methyl]ethyl]carbamate]
5.9 nM	> 10000 nM	2.2 nM	–	CC(=O)NC(CS(=O)(=O)c1ccc(Sc2ccccc2)cc1)C(=O)NO (stereo not shown) [Example 15b, 2-(Acetylamino)-N-hydroxy-3-[[4-(phenylthio)phenyl]sulfonyl]propanamide]
0.8 nM	> 10000 nM	–	–	O=C(CNC(=O)OCc1ccccc1)NC(CS(=O)(=O)c1ccc(Sc2ccccc2)cc1)C(=O)NO (stereo not shown) [Example 16c, Phenylmethyl-[2-[[2-(hydroxyamino)-2-oxo-1-[[[4-(phenylthio)-phenyl]sulfonyl]methyl]ethyl]amino]-2-oxoethyl]carbamate]
0.4 nM	600 nM	–	–	Cc1ccc(S(=O)(=O)NC(CS(=O)(=O)c2ccc(Sc3ccccc3)cc2)C(=O)NO)cc1 (stereo not shown) [Example 17c]
24 nM	> 10000 nM	–	–	NC(CS(=O)(=O)c1ccc(Sc2ccccc2)cc1)C(=O)NO (stereo not shown) [Example 18a]
0.8 nM	> 10000 nM	–	–	C[C@H](NC(=O)OCc1ccccc1)C(=O)NC(CS(=O)(=O)c1ccc(Sc2ccccc2)cc1)C(=O)NO (stereo partly shown) [Example 19a]
4 nM	> 10000 nM	–	–	CC(C)(C)NC(=O)NC(CS(=O)(=O)c1ccc(Sc2ccccc2)cc1)C(=O)NO (stereo not shown) [Example 20b]
15 nM	300 nM	–	–	COc1ccc(S(=O)(=O)CC(NS(C)(=O)=O)C(=O)NO)cc1 (stereo not shown) [Example 21]
14 nM	> 10000 nM	–	–	O=C(NC(CS(=O)(=O)c1ccc(Sc2ccccc2)cc1)C(=O)NO)c1ccco1 (stereo not shown) [Example 27]
13 nM	> 10000 nM	5.5 nM	–	O=C(NC(CS(=O)(=O)c1ccc(Sc2ccccc2)cc1)C(=O)NO)c1ccncc1 (stereo not shown) [Example 28]
7 nM	> 10000 nM	–	–	O=C(NC(CS(=O)(=O)c1ccc(Sc2ccccc2)cc1)C(=O)NO)c1cccnc1 (stereo not shown) [Example 29]
2.9 nM	–	0.5 nM	–	CC(=O)N[C@@H](CS(=O)(=O)c1ccc(Sc2ccccc2)cc1)C(=O)NO [Example 30]
0.4 nM	3000 nM	0.8 nM	–	COc1ccc(CC(=O)NC(CS(=O)(=O)c2ccc(Sc3ccccc3)cc2)C(=O)NO)c(OC)c1 (stereo not shown) [Example 31]
0.4 nM	8000 nM	–	–	O=C(N[C@@H](CS(=O)(=O)c1ccc(Sc2ccccc2)cc1)C(=O)NO)OCc1ccccc1 [Example 32]
0.3 nM	500 nM	0.2 nM	–	CC(C)(C)OC(=O)N[C@@H](CS(=O)(=O)c1ccc(Oc2ccccc2)cc1)C(=O)NO [Example 33]
5 nM	> 10000 nM	–	–	O=C(NC(CS(=O)(=O)c1ccc(Sc2ccccc2)cc1)C(=O)NO)c1ccccc1 (stereo not shown) [Example 34]

IC50 [1, 4]	IC50 [2]	IC50 [3]	IC50 [1, 5]	Structure (SMILES)
0.2 nM	3000 nM	–	–	O=C(NC(CS(=O)(=O)c1ccc(Sc2ccccc2)cc1)C(=O)NO)c1ccccc1-c1ccccc1 (stereo not shown) [Example 35]
2.5 nM	> 10000 nM	–	–	O=C(NC(CS(=O)(=O)c1ccc(Sc2ccccc2)cc1)C(=O)NO)c1cccc2ccccc12 (stereo not shown) [Example 36]
0.4 nM	350 nM	0.25 nM	–	COc1cccc(OC)c1C(=O)N[C@@H](CS(=O)(=O)c1ccc(Oc2ccccc2)cc1)C(=O)NO [Example 37]
–	170 nM	–	0.5 nM	CC(N)(CS(=O)(=O)c1ccc(Oc2ccccc2)cc1)C(=O)NO (stereo not shown) [Example 38]
–	114 nM and 225 nM	–	0.3 nM and 1.1 nM	CC(N)(CS(=O)(=O)c1ccc(Oc2ccccc2)cc1)C(=O)NO (stereo not shown) [Example 39]
0.3 nM	1600 nM	0.3 nM	–	CN(C(=O)OC(C)(C)C)[C@H](CS(=O)(=O)c1ccc(Oc2ccccc2)cc1)C(=O)NO [Example 40]
0.4 nM and 1 nM	440 nM and 670 nM	0.3 nM and 0.5 nM	–	CN[C@@H](CS(=O)(=O)c1ccc(Oc2ccccc2)cc1)C(=O)NO [Example 41]
0.2 nM	90 nM	0.2 nM	–	CC(=O)N(C)[C@@H](CS(=O)(=O)c1ccc(Oc2ccccc2)cc1)C(=O)NO [Example 43]
0.8 nM	900 nM	0.3 nM	–	O=C(N[C@@H](CS(=O)(=O)c1ccc(Oc2ccccc2)cc1)C(=O)NO)c1ccncc1 [Example 44]
5 nM	–	–	–	CC(C)(C)NC(=O)NC(CS(=O)(=O)c1ccc(Sc2ccccc2)cc1)C(=O)NO (stereo not shown) [Example 45]
1.1 nM	1310 nM	0.3 nM	–	O=C(N[C@@H](CS(=O)(=O)c1ccc(Oc2ccccc2)cc1)C(=O)NO)c1ccncc1 [Example 46]
45.3 nM	258 nM	0.6 nM	–	CN(C(=O)Cc1ccncc1)[C@H](CS(=O)(=O)c1ccc(Oc2ccccc2)cc1)C(=O)NO [Example 47]
0.2 nM	475 nM	< 0.1 nM	–	CN(Cc1ccccc1)[C@H](CS(=O)(=O)c1ccc(Oc2ccccc2)cc1)C(=O)NO [Example 48]
160 nM	–	–	–	CC(CS(=O)(=O)c1ccc(Oc2ccccc2)cc1)(NC(=O)CN1CCCC1)C(=O)NO (stereo not shown) [Example 49]
24 nM	–	–	–	CN(C)C(C)(CS(=O)(=O)c1ccc(Oc2ccccc2)cc1)C(=O)NO (stereo not shown) [Example 52]
1.6 nM	1600 nM	–	–	CCNC(C)(CS(=O)(=O)c1ccc(Oc2ccccc2)cc1)C(=O)NO (stereo not shown) [Example 55]
0.3 nM	–	–	–	CC(CS(=O)(=O)c1ccc(Oc2ccccc2)cc1)(NCc1ccccc1)C(=O)NO (stereo not shown) [Example 56]
580 nM	–	–	–	CC(=O)NC(C)(CS(=O)(=O)c1ccc(Sc2ccccc2)cc1)C(=O)NO (stereo not shown) [Example 57]
2.4 nM	4400 nM	–	–	CC(N)(CS(=O)(=O)c1ccc(Sc2ccccc2)cc1)C(=O)NO (stereo not shown) [Example 58]
161 nM	–	–	–	O=C(NC(CS(=O)(=O)c1ccc(Oc2ccccc2)cc1)(C(=O)NO)c1ccccc1)c1ccccc1 (stereo not shown) [Example 65]
1.1 nM	–	–	–	CC(CS(=O)(=O)c1ccc(Oc2ccccc2)cc1)(NCc1ccc2c(c1)OCO2)C(=O)NO (stereo not shown) [Example 66]
1.4 nM	–	–	–	CC(CS(=O)(=O)c1ccc(Oc2ccccc2)cc1)(NCc1ccc2ccccc2c1)C(=O)NO (stereo not shown) [Example 68]
0.6 nM	700 nM	–	–	C#CCNC(C)(CS(=O)(=O)c1ccc(Oc2ccccc2)cc1)C(=O)NO (stereo not shown) [Example 69]

Structure (SMILES)	IC50 [1, 4]	IC50 [2]	IC50 [3]	IC50 [1, 5]
CC(CS(=O)(=O)c1ccc(Oc2ccccc2)cc1)(NCCc1ccccc1)C(=O)NO (stereo not shown) [Example 67]	2.4 nM	2400 nM	–	–
NC(CS(=O)(=O)c1ccc(Oc2ccccc2)cc1)(C(=O)NO)c1ccccc1 (stereo not shown) [Example 70]	0.4 nM	130 nM	–	–
